Reference: US11306124B2, “Agonist agents of CD47 inducing programmed cell death and their use in the treatments of diseases associated with defects in programmed cell death” (SORBONNE UNIVERSITE, priority 2016, dated 2022)
Residues, ends and D or L forms follow the SMILES beside them.

Target: T1, CD47 (Homo sapiens, UniProt Q08722)
T1 construct: MEC-1 or Jurkat membrane preparation is labeled using the Nanotemper NT-647 labeling kit; endogenous in cells; host or cells: Jurkat and/or MEC-1 cell membrane preparation
T1 sequence (Q08722 19-323): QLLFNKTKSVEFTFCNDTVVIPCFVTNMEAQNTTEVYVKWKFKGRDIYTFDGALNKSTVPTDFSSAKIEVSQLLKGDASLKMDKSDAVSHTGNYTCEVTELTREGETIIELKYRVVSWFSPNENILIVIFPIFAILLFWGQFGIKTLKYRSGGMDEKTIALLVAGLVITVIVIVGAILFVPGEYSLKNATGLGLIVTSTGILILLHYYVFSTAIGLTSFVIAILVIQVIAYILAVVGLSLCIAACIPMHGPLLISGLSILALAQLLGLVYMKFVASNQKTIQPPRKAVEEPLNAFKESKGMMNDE
Assay: Binding affinity by Microscale Thermophoresis on labeled Jurkat and/or MEC-1 cell membrane preparation
Text: FIG. 5 and FIG. 6. Binding curve measured by MST. The measurement method is based on the directed movement of molecules along a temperature gradient, an effect termed “thermophoresis”. A local temperature difference ΔT leads to a local change in molecule concentration (depletion or enrichment), quantified by the Soret coefficient ST: chot/ccold=exp(−STΔT). Jurkat or Mec-1 cell membrane preparations are labeled using the Nanotemper NT-647 labeling kit as described elsewhere.xliv The labeled preparation is eluted with PBS and stored at 4° C. A stock solution of each peptide is prepared in DMSO (5 mM) and then diluted with PBS. For the peptides evaluated by MST, we have kept the concentration of the NT.115-labeled membrane constant, while the concentration of the ligand (peptide) was varied. […]
Binding affinity measurements. The binding affinities of peptides, here PKT16, PKTD1, PKTD10, PKTD10-1, PKTD10-3, PKTD10-5, PKDT10-7 and PKTD10-8 for a membrane preparation from Jurkat and/or MEC-1 cells were measured by Microscale Thermophoresis^xlv on a Monolith NT115-pico system (Nanotemper Technologies, Munich, Germany).
Binding curve measured by MST. […] A local temperature difference ΔT leads to a local change in molecule concentration (depletion or enrichment), quantified by the Soret coefficient ST: chot/ccold=exp(−STΔT). […]

## CCCC[C@H](NC(=O)[C@@H](NC(=O)[C@@H](NC(=O)[C@H](Cc1ccc(O)cc1)NC(=O)[C@H](Cc1ccccc1)NC(=O)[C@H](CCCNC(=N)N)N(C)C(=O)[C@H](N)CCCCN)C(C)C)C(C)C)C(=O)N[C@@H](Cc1c[nH]c2ccccc12)C(=O)N[C@@H](CCCCN)C(=O)N[C@H](CCCCN)C(=O)O [PKT16, (D)Lys-(N-Me)Arg-Phe-Tyr-Val-Val-Nle-Trp-Lys-(D)Lys] (HELM PEPTIDE1{[dK].[meR].F.Y.V.V.[Nle].W.K.[dK]}$$$$V2.0; N-terminus and C-terminus assumed)
  binding affinities (Kd), order of magnitude in words: micromolar range
